Source: article PMC11808397, “Development of selective nanomolar cyclic peptide ligands as GBA1 enzyme stabilisers” (RSC Chemical Biology, 2025)
Positions of bridges follow the written chain, without caps; N, C: chain ends. Non-standard residues stand in square brackets, D forms with d. Residues, ends and D or L forms follow the SMILES beside them.

Molecular target: T1, recombinant human GBA1 (rhGBA1, Cerezyme) (Homo sapiens, UniProt P04062, R534H)
T1 construct: purchased Cerezyme
T1 sequence (P04062 40-536 R534H): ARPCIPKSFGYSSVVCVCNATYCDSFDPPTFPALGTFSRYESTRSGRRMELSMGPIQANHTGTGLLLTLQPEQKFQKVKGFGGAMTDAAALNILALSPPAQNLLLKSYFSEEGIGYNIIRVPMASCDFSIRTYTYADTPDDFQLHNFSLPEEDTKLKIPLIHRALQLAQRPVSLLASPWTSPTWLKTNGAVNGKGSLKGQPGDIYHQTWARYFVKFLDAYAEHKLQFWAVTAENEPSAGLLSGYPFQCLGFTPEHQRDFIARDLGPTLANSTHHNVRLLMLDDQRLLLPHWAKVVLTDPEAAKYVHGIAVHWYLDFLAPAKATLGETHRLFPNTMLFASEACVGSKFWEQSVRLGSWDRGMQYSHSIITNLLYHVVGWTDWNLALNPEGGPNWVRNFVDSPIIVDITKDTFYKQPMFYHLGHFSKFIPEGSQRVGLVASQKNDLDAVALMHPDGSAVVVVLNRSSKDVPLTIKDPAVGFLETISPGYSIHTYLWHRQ
Assay: In vitro rhGBA1 inhibition, 4-MU-β-D-glucopyranoside hydrolysis
Format: biochemical
Conditions: Cerezyme 14 nM, 3.7 mM 4-MU-β-D-glucopyranoside, McIlvaine pH 5.2, 30 min pre-incubation 37 °C + 30 min, mean ± SD from 3 technical triplicates; for IC50: SD
Description: Based on the pull-down validation, a set of eight cyclic peptides (L1, L2, L4, L6, D1, D8, D12 and D13) were identified, synthesized, and evaluated for their inhibitory potency against recombinant human GBA1 (rhGBA1, Cerezyme®) and their selectivity over human β-glucosidases GBA2 and GBA3. Half-maximum inhibitory concentration (IC50) values for β-glucosidases were determined in vitro by measuring hydrolysis of 4-methylumbelliferyl-β-D-glucopyranoside (4-MU-β-D-Glu) fluorogenic substrate. […]
Pure product fractions were pooled, lyophilized, and dissolved again in DMSO before concentration was determined by A280 using a sample diluted in phosphate buffer at pH 7.4 and extinction coefficients determined from the sequence using the Expasy ProtParam online tool (https://web.expasy.org/protparam/). […]
2.5. In vitro IC50 and Ki measurements
For GBA1, IC50 values were determined using the recombinant human GBA1 (rhGBA1, Cerezyme) following described procedures.4 Enzyme activity was measured using 3.7 mM 4-methylumbeliferone (4MU)-β-D-glucopyranoside in 150 mM McIlvaine buffer pH 5.2 supplemented with 0.1% bovine serum albumin (BSA) (w/v), 0.1% Triton X-100 (v/v), and 0.2% sodium taurocholate (w/v). Varying concentrations of inhibitor (12.5 µL) were incubated with 12.5 µL of enzyme (final concentration 14 nM) at 37 °C for 30 min. Following this, 100 µL of 4MU substrate was added and the samples were again incubated at 37 °C for 30 min. The reaction was quenched using excess 1 M NaOH-glycine (200 µL, pH 10.3) and 4MU fluorescence was measured using a LS55 fluorimeter (λEx 366 nm and λEm 445 […]
30 min at 37 °C (12.5 µL) and subsequently incubated with the tested ligands at a range of concentrations for 30 min at 37 °C (12.5 µL), after which 100 µL 4MU-β-D-glucopyranoside was added for a final incubation of 30 min at 37 °C, quenched with 200 µL 1 M NaOH-glycine (pH 10.3) and fluorescence was measured. IC50 values were calculated using GraphPad Prism version 8.

| Structure (SMILES) | IC50 [nM] | rhGBA1 IC50 |
| --- | --- | --- |
| CC[C@H](C)[C@H](NC(=O)[C@H](CC(C)C)NC(=O)[C@H](Cc1ccc(O)cc1)NC(=O)[C@H](Cc1ccc(O)cc1)NC(=O)[C@@H]1CSCC(=O)N[C@H](Cc2ccc(O)cc2)C(=O)N[C@@H](CCCNC(=N)N)C(=O)N[C@@H](C(C)C)C(=O)N1)C(=O)N[C@H](C(=O)N[C@H](C(=O)N[C@@H](CC(C)C)C(=O)N[C@@H](CC(=O)O)C(=O)N[C@@H](CS)C(N)=O)C(C)C)[C@@H](C)O [D1] ({CH2CO}-[dY]RVCYYLITVLDC-NH2; thioether N-4) | 5 ± 3 | low nanomolar |
| CC(C)C[C@@H]1NC(=O)CNC(=O)[C@H](CC(C)C)NC(=O)[C@@H](Cc2ccc(O)cc2)NC(=O)CSC[C@@H](C(N)=O)NC(=O)[C@H](CO)NC(=O)[C@H](CCCCN)NC(=O)[C@H](CC(C)C)NC(=O)[C@H](Cc2ccccc2)NC(=O)[C@H](CCCNC(=N)N)NC(=O)[C@H](Cc2ccc(O)cc2)NC(=O)[C@H](Cc2c[nH]c3ccccc23)NC1=O [D12] ({CH2CO}-[dY]LGLWYRFLKSC-NH2; thioether N-12) | 4 ± 4 | low nanomolar |
| CC[C@H](C)[C@H](NC(=O)[C@H](CCCNC(=N)N)NC(=O)[C@@H]1CSCC(=O)N[C@@H](Cc2ccc(O)cc2)C(=O)N[C@@H](C)C(=O)N[C@@H](Cc2ccc(O)cc2)C(=O)N[C@@H](Cc2c[nH]c3ccccc23)C(=O)N[C@@H](Cc2c[nH]c3ccccc23)C(=O)N[C@@H](CC(C)C)C(=O)N1)C(=O)N1CCC[C@H]1C(=O)N[C@@H](Cc1c[nH]c2ccccc12)C(=O)N[C@@H](CC(C)C)C(=O)N[C@@H](CO)C(=O)N[C@H](C(N)=O)C(C)C [L2] ({CH2CO}-YAYWWLCRIPWLSV-NH2; thioether N-7) | 340 ± 160 | – |

More lines, now with the values ahead:

| IC50 [nM] | rhGBA1 IC50 | Structure (SMILES) |
| --- | --- | --- |
| 12 ± 11 | – | CC(C)C[C@H](NC(=O)[C@@H](NC(=O)[C@H](CCCNC(=N)N)NC(=O)[C@@H]1CSCC(=O)N[C@H](Cc2ccc(O)cc2)C(=O)N[C@@H]([C@@H](C)O)C(=O)N2CCC[C@H]2C(=O)NCC(=O)N[C@@H](Cc2ccc(O)cc2)C(=O)N[C@@H](C(C)C)C(=O)N[C@@H](Cc2ccc(O)cc2)C(=O)N1)C(C)C)C(=O)N[C@@H](CCCCN)C(=O)N[C@@H](Cc1ccc(O)cc1)C(=O)N[C@@H](CS)C(N)=O [D8] ({CH2CO}-[dY]TPGYVYCRVLKYC-NH2; thioether N-8) |
| 5660 ± 2040 | – | CC[C@H](C)[C@@H]1NC(=O)[C@H](Cc2ccc(O)cc2)NC(=O)CSC[C@@H](C(N)=O)NC(=O)[C@H](Cc2c[nH]c3ccccc23)NC(=O)[C@H](CCC(N)=O)NC(=O)[C@H]([C@@H](C)CC)NC(=O)[C@H]([C@@H](C)CC)NC(=O)[C@@H]2CCCN2C(=O)[C@H](C(C)C)NC(=O)[C@H](Cc2ccc(O)cc2)NC(=O)[C@H](Cc2c[nH]c3ccccc23)NC(=O)[C@H](CO)NC1=O [L6] ({CH2CO}-YISWYVPIIQWC-NH2; thioether N-12) |
| 9 ± 4 | low nanomolar | CC(C)C[C@@H]1NC(=O)CNC(=O)[C@H](Cc2ccccc2)NC(=O)[C@H](CC(C)C)NC(=O)[C@@H]2CCCN2C(=O)[C@H](Cc2ccc(O)cc2)NC(=O)CSC[C@@H](C(=O)N2CCC[C@H]2C(=O)N[C@@H](CC(N)=O)C(=O)N[C@@H](Cc2c[nH]c3ccccc23)C(=O)N[C@@H](Cc2ccccc2)C(=O)N2CCC[C@H]2C(=O)N[C@@H](Cc2ccc(O)cc2)C(=O)N[C@@H](CCC(N)=O)C(=O)N[C@@H](CS)C(N)=O)NC(=O)[C@H](CO)NC(=O)[C@H](Cc2ccccc2)NC1=O [L4] ({CH2CO}-YPLFGLFSCPNWFPYQC-NH2; thioether N-9) |
| 138000 ± 55800 | high micromolar range | CC[C@H](C)[C@@H]1NC(=O)[C@H](CO)NC(=O)[C@H](CS)NC(=O)CNC(=O)CNC(=O)[C@H](CC(C)C)NC(=O)[C@H](Cc2ccc(O)cc2)NC(=O)[C@H](C(C)C)NC(=O)[C@H](CC(C)C)NC(=O)[C@H](CCCNC(=N)N)NC(=O)[C@@H]2CCCN2C(=O)[C@H](Cc2ccc(O)cc2)NC(=O)CSC[C@@H](C(N)=O)NC(=O)[C@H](CCC(=O)O)NC(=O)[C@H](CC(C)C)NC(=O)[C@H](CC(C)C)NC1=O [L1] ({CH2CO}-YPRLVYLGGCSILLEC-NH2; thioether N-16) |
